Experimental data reported in a melting point compilation (Tetko et al.; mined from patent text by program, amines drawn as free bases though some values may be those of a salt).

SMILES	melting point
COc1cc(Cc2c(N)nc(N)nc2O)cc(OC)c1OC	275 to 276 °C
Cc1noc(-c2cccc(NC(=O)Oc3ccc([N+](=O)[O-])cc3)c2)n1	217 to 220 °C
CCOC(=O)C=C1NC(C)=C(C(=O)OCC)C(c2ccccc2C(F)(F)F)C1C(=O)OCC (stereo not given)	98 to 99 °C
COc1ccc(CN(C)C(=O)CCCOc2ccc3c(c2)CN2CC(=O)NC2=N3)cc1	256 to 258 °C
CCCCCCCCCCCCC#CCC(NC(C)=O)(C(=O)OCC)C(=O)OCC	43 to 43.5 °C
CC1N=C(c2ccccc2)c2ccccc2NC1=O (stereo not given)	160 to 162 °C
CNC(=O)Cc1ccc2ccn(C3CCN(CCc4ccccc4F)CC3)c2c1	136 to 137 °C
CCOC(=O)CCCCOc1ccc(C(=N)NC(=O)OCc2ccccc2)cc1	88 to 90 °C
CNc1cc(C)ccc1C(C)=O	47 °C
CCCCn1c(=S)sc2c(=N)n(NC(N)=O)cnc21	222 °C
CN1C(=O)C(C)(C)C(=O)N(C)c2ccccc21	159 to 160 °C
Cc1csc(-c2ccc(C(=O)Nc3ccc4cc(CN5CCCC5)cnc4c3C)cc2)c1	224 to 225 °C
COC(=O)CCc1conc1-c1ccc(F)c(Br)c1	57 to 58 °C
COC(=O)c1ccc(I)c2c(=O)c3ccccc3[nH]c12	189 to 191 °C
COc1ccc2ccc(N3C(=O)c4ccccc4C3OCC(=O)N3CCC(O)CC3)nc2n1 (stereo not given)	167 °C
CC1CCC(c2cccc(NC(=O)N3CCC4(CC3)OCCO4)c2)(N2CCN(c3ccccc3)CC2)CC1 (stereo not given)	245 to 247 °C
NC(=O)c1cc(-c2ncc(C(F)(F)F)cc2Cl)ccc1Cl	167 to 168 °C
COC(=O)c1cccc(OC2CCOc3ccc(OCc4ccccc4)cc3C2=O)c1 (stereo not given)	134 to 136 °C
N#Cc1c(Cl)c(Cl)n(CCl)c1-c1ccc(Cl)c(Cl)c1	153 to 156 °C
CCCCSc1cc(C(=O)O)cc(N=Nc2cc(C(=O)O)cc(SCCCC)c2C(=O)c2ccccc2)c1C(=O)c1ccccc1	102 to 103 °C
CCOC(=O)c1c[nH]cc1-c1ccc(Cl)cc1	137 to 138 °C
CC(C)(C)c1ccc(CC(=O)O)c(Cc2ccc(CC(=O)O)cc2)c1	138 to 139 °C
CCCCC[C@@H](CNC(=O)Nc1c(OCC)ncnc1N(C)C)c1cccc2c1OCO2	62 to 64 °C
FC(F)Sc1ccc(-n2cnnn2)cc1	94 to 97 °C
O=C(OC1CCCCC1)C1=C(O)c2ccccc2S(=O)(=O)N1	158 °C

SMILES	melting point
O=C(O)c1ccc2oc3ccncc3c(=O)c2c1	> 300 °C
CCCCCc1ccc(-c2c(C(C)C)cc(-c3ccccc3)c(CO)c2C(C)C)nc1	56 to 58 °C
Cc1ccc(Sc2ccc(C)cc2)cc1	56.5 °C
CCOC(=O)c1c(N=[N+]=[N-])cc(C(F)(F)F)nc1C(F)(F)F	63 to 64.5 °C
CC(C)(C)NC(=O)C1C(C=C(Cl)Cl)C1(C)C (stereo not given)	108 to 109 °C
CCOP(=O)(CCC1(C)NC(=O)NC1=O)OCC (stereo not given)	100 to 103 °C
COc1ccc(NC(=O)CC23CC4CC(CC(C4)C2)C3)c(C)c1	156 to 157 °C
COC(=O)C1=C(C)NC(C)=C(C(=O)OCC2CCCO2)C1c1cccc(F)c1 (stereo not given)	66 to 68 °C
Cc1cc(C)cc(CN(C)C2CCCn3c2c(-c2ccccc2)c2cc(C)c(C)cc2c3=O)c1 (stereo not given)	144 to 145 °C
CCCCn1cc(S(C)=O)c(=O)c2ccccc21 (stereo not given)	103 to 105 °C
Cc1cccc(C(O)CN2CCNC2=S)c1 (stereo not given)	100 °C
Cc1cc2c(s1)Oc1ccc(Cl)cc1NC2=O	250 to 253 °C
CC(=O)NC1CCC2=C(CC1)C(=O)C(CC(=O)O)C=C2 (stereo not given)	198 °C
O=C(O)c1ccc(CCCOCCCCCCBr)s1	93 to 95 °C
Nc1cc(CO)cc([N+](=O)[O-])c1-c1ccc(O)cc1	158 °C
CNc1c(C)cc(C(C)(C)c2ccc(C(C)(C)c3cc(C)c(NC)c(C)c3)cc2)cc1C	110 to 115 °C
CCN(CC)c1nc(N)c2cc(OC)c(OC)cc2n1	167 to 169 °C
Cc1[nH]c(=O)[nH]c1C(=O)CC(C)C	232 to 233 °C
O=C(O)c1cn(C2CC2)c2c(F)c(N3CCC(CNCCF)C3)c(F)cc2c1=O (stereo not given)	134 to 138 °C
COc1cc(C)cc(Sc2cccc(N)c2C#N)c1	108 to 110 °C
CCOc1cccc(N2C(=O)C(=CN(C)C)c3ccccc32)c1	99 to 102 °C
O=C(O)c1ccc(F)c(F)c1Nc1ccc(I)cc1F	199 to 201 °C
Cc1ccc(S(=O)(=O)Nc2cc(C(C)(C)C)c(O)c(C(C)(C)C)c2)cc1	160 to 180 °C
O=C(Nc1ccc(C(F)(F)F)cc1)Nc1cccc(Oc2ccccc2)c1	178 to 181 °C
C=Cc1cc(Cl)cc2[nH]c(=O)c(-c3ccccc3)c(O)c12	240 to 244 °C
